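96-well plates; 48 h exposure; 5 concentrations. Endpoints by linear interpolation between flanking doses. Not reached: highest tested concentration assigned. GI50 is the concentration that inhibits growth by half. Definition used: TGI = concentration required for complete inhibition of growth.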
system: HL-60(TB) leukemia; assay: inhibition of tumour cell growth, NCI panel, 48 h

SMILES | GI50 | TGI
O=C1C=C[C@H](O)[C@@]2(CO)O[C@@H]12 | 2.65 µM | 8.3 µM
O=C(c1ccco1)N(C(=O)N1CCCCC1)c1ccccc1 | – | > 100 µM
OCc1ccc2c(c1)CC1(C2)Cc2cc3c(cc2C1O)CCC3 (centres undefined) | – | > 23.4 µM

system: COLO 205 colon; assay: inhibition of tumour cell growth, NCI panel, 48 h

SMILES | TGI | GI50
COC(=O)C(Cc1cn(C(C)n2cc(CC(NC(C)=O)C(=O)OC)c3ccccc32)c2ccccc12)NC(C)=O (centres undefined) | > 100 µM | –
OCc1cn(Cc2ccccc2)c2ccccc12 | 13.6 µM | –
CC(=O)O[C@@H](c1nccn1Cc1ccccc1)[C@H]1OC(C)(C)O[C@@H]1[C@H]1COC(C)(C)O1 | > 100 µM | –
O=C1C=C[C@H](O)[C@@]2(CO)O[C@@H]12 | 3.55 µM | 1.84 µM
O=C(c1ccco1)N(C(=O)N1CCCCC1)c1ccccc1 | > 100 µM | –
OCc1ccc2c(c1)CC1(C2)Cc2cc3c(cc2C1O)CCC3 (centres undefined) | 10.3 µM | –

system: SF-295 CNS; assay: inhibition of tumour cell growth, NCI panel, 48 h

SMILES | TGI | GI50
COC(=O)C(Cc1cn(C(C)n2cc(CC(NC(C)=O)C(=O)OC)c3ccccc32)c2ccccc12)NC(C)=O (centres undefined) | > 100 µM | –
OCc1cn(Cc2ccccc2)c2ccccc12 | > 100 µM | –
CC(=O)O[C@@H](c1nccn1Cc1ccccc1)[C@H]1OC(C)(C)O[C@@H]1[C@H]1COC(C)(C)O1 | > 100 µM | –
O=C1C=C[C@H](O)[C@@]2(CO)O[C@@H]12 | 38.5 µM | 8.26 µM
OCc1ccc2c(c1)CC1(C2)Cc2cc3c(cc2C1O)CCC3 (centres undefined) | 12.4 µM | –

system: SF-539 CNS; assay: inhibition of tumour cell growth, NCI panel, 48 h

SMILES | TGI | GI50
OCc1cn(Cc2ccccc2)c2ccccc12 | > 69 µM | –
CC(=O)O[C@@H](c1nccn1Cc1ccccc1)[C@H]1OC(C)(C)O[C@@H]1[C@H]1COC(C)(C)O1 | > 100 µM | –
O=C1C=C[C@H](O)[C@@]2(CO)O[C@@H]12 | 25.6 µM | 11.6 µM
O=C(c1ccco1)N(C(=O)N1CCCCC1)c1ccccc1 | > 100 µM | –
OCc1ccc2c(c1)CC1(C2)Cc2cc3c(cc2C1O)CCC3 (centres undefined) | 14.9 µM | –

system: SW-620 colon; assay: inhibition of tumour cell growth, NCI panel, 48 h

SMILES | TGI | GI50
COC(=O)C(Cc1cn(C(C)n2cc(CC(NC(C)=O)C(=O)OC)c3ccccc32)c2ccccc12)NC(C)=O (centres undefined) | > 100 µM | –
OCc1cn(Cc2ccccc2)c2ccccc12 | > 100 µM | –
CC(=O)O[C@@H](c1nccn1Cc1ccccc1)[C@H]1OC(C)(C)O[C@@H]1[C@H]1COC(C)(C)O1 | > 100 µM | –
O=C1C=C[C@H](O)[C@@]2(CO)O[C@@H]12 | 5.33 µM | 2.23 µM
O=C(c1ccco1)N(C(=O)N1CCCCC1)c1ccccc1 | > 100 µM | –
OCc1ccc2c(c1)CC1(C2)Cc2cc3c(cc2C1O)CCC3 (centres undefined) | 24 µM | –

system: MDA-MB-231 breast; assay: inhibition of tumour cell growth, NCI panel, 48 h

SMILES | TGI | GI50
COC(=O)C(Cc1cn(C(C)n2cc(CC(NC(C)=O)C(=O)OC)c3ccccc32)c2ccccc12)NC(C)=O (centres undefined) | > 100 µM | –
OCc1cn(Cc2ccccc2)c2ccccc12 | 54.5 µM | –
CC(=O)O[C@@H](c1nccn1Cc1ccccc1)[C@H]1OC(C)(C)O[C@@H]1[C@H]1COC(C)(C)O1 | > 100 µM | –
O=C1C=C[C@H](O)[C@@]2(CO)O[C@@H]12 | 30.1 µM | 15.5 µM
O=C(c1ccco1)N(C(=O)N1CCCCC1)c1ccccc1 | > 100 µM | –
OCc1ccc2c(c1)CC1(C2)Cc2cc3c(cc2C1O)CCC3 (centres undefined) | 13.3 µM | –

system: HOP-92 NSCLC; assay: inhibition of tumour cell growth, NCI panel, 48 h

SMILES | TGI | GI50
COC(=O)C(Cc1cn(C(C)n2cc(CC(NC(C)=O)C(=O)OC)c3ccccc32)c2ccccc12)NC(C)=O (centres undefined) | > 100 µM | –
OCc1cn(Cc2ccccc2)c2ccccc12 | 22.9 µM | –
CC(=O)O[C@@H](c1nccn1Cc1ccccc1)[C@H]1OC(C)(C)O[C@@H]1[C@H]1COC(C)(C)O1 | > 100 µM | –
O=C1C=C[C@H](O)[C@@]2(CO)O[C@@H]12 | 14.6 µM | 4.77 µM
OCc1ccc2c(c1)CC1(C2)Cc2cc3c(cc2C1O)CCC3 (centres undefined) | 34.1 µM | –

system: MDA-N; assay: inhibition of tumour cell growth, NCI panel, 48 h

SMILES | TGI
COC(=O)C(Cc1cn(C(C)n2cc(CC(NC(C)=O)C(=O)OC)c3ccccc32)c2ccccc12)NC(C)=O (centres undefined) | > 100 µM
OCc1cn(Cc2ccccc2)c2ccccc12 | > 65.5 µM
CC(=O)O[C@@H](c1nccn1Cc1ccccc1)[C@H]1OC(C)(C)O[C@@H]1[C@H]1COC(C)(C)O1 | > 100 µM
O=C(c1ccco1)N(C(=O)N1CCCCC1)c1ccccc1 | > 100 µM

system: SK-MEL-5 melanoma; assay: inhibition of tumour cell growth, NCI panel, 48 h

SMILES | TGI | GI50
COC(=O)C(Cc1cn(C(C)n2cc(CC(NC(C)=O)C(=O)OC)c3ccccc32)c2ccccc12)NC(C)=O (centres undefined) | > 100 µM | –
OCc1cn(Cc2ccccc2)c2ccccc12 | > 47.2 µM | –
CC(=O)O[C@@H](c1nccn1Cc1ccccc1)[C@H]1OC(C)(C)O[C@@H]1[C@H]1COC(C)(C)O1 | > 100 µM | –
O=C1C=C[C@H](O)[C@@]2(CO)O[C@@H]12 | 29.7 µM | 16.1 µM
O=C(c1ccco1)N(C(=O)N1CCCCC1)c1ccccc1 | > 100 µM | –
OCc1ccc2c(c1)CC1(C2)Cc2cc3c(cc2C1O)CCC3 (centres undefined) | 12 µM | –

system: MDA-MB-435; assay: inhibition of tumour cell growth, NCI panel, 48 h

SMILES | TGI | GI50
COC(=O)C(Cc1cn(C(C)n2cc(CC(NC(C)=O)C(=O)OC)c3ccccc32)c2ccccc12)NC(C)=O (centres undefined) | > 100 µM | –
OCc1cn(Cc2ccccc2)c2ccccc12 | > 64.7 µM | –
CC(=O)O[C@@H](c1nccn1Cc1ccccc1)[C@H]1OC(C)(C)O[C@@H]1[C@H]1COC(C)(C)O1 | > 100 µM | –
O=C1C=C[C@H](O)[C@@]2(CO)O[C@@H]12 | > 51.5 µM | 9.92 µM
O=C(c1ccco1)N(C(=O)N1CCCCC1)c1ccccc1 | > 100 µM | –
OCc1ccc2c(c1)CC1(C2)Cc2cc3c(cc2C1O)CCC3 (centres undefined) | 2.99 µM | –

system: OVCAR-3 ovarian; assay: inhibition of tumour cell growth, NCI panel, 48 h

SMILES | TGI | GI50
COC(=O)C(Cc1cn(C(C)n2cc(CC(NC(C)=O)C(=O)OC)c3ccccc32)c2ccccc12)NC(C)=O (centres undefined) | > 100 µM | –
OCc1cn(Cc2ccccc2)c2ccccc12 | 6.96 µM | –
CC(=O)O[C@@H](c1nccn1Cc1ccccc1)[C@H]1OC(C)(C)O[C@@H]1[C@H]1COC(C)(C)O1 | > 100 µM | –
O=C1C=C[C@H](O)[C@@]2(CO)O[C@@H]12 | 10.7 µM | 3.31 µM
O=C(c1ccco1)N(C(=O)N1CCCCC1)c1ccccc1 | > 100 µM | –
OCc1ccc2c(c1)CC1(C2)Cc2cc3c(cc2C1O)CCC3 (centres undefined) | > 50.9 µM | –

system: HCT-116 colon; assay: inhibition of tumour cell growth, NCI panel, 48 h

SMILES | TGI | GI50
COC(=O)C(Cc1cn(C(C)n2cc(CC(NC(C)=O)C(=O)OC)c3ccccc32)c2ccccc12)NC(C)=O (centres undefined) | > 100 µM | –
OCc1cn(Cc2ccccc2)c2ccccc12 | > 26.3 µM | –
CC(=O)O[C@@H](c1nccn1Cc1ccccc1)[C@H]1OC(C)(C)O[C@@H]1[C@H]1COC(C)(C)O1 | > 100 µM | –
O=C1C=C[C@H](O)[C@@]2(CO)O[C@@H]12 | 3.33 µM | 1.79 µM
O=C(c1ccco1)N(C(=O)N1CCCCC1)c1ccccc1 | > 100 µM | –
OCc1ccc2c(c1)CC1(C2)Cc2cc3c(cc2C1O)CCC3 (centres undefined) | 15.4 µM | –

system: OVCAR-4 ovarian; assay: inhibition of tumour cell growth, NCI panel, 48 h

SMILES | TGI | GI50
COC(=O)C(Cc1cn(C(C)n2cc(CC(NC(C)=O)C(=O)OC)c3ccccc32)c2ccccc12)NC(C)=O (centres undefined) | > 100 µM | –
CC(=O)O[C@@H](c1nccn1Cc1ccccc1)[C@H]1OC(C)(C)O[C@@H]1[C@H]1COC(C)(C)O1 | > 100 µM | –
O=C1C=C[C@H](O)[C@@]2(CO)O[C@@H]12 | 29.4 µM | 13 µM
OCc1ccc2c(c1)CC1(C2)Cc2cc3c(cc2C1O)CCC3 (centres undefined) | 36.3 µM | –

system: KM12 colon; assay: inhibition of tumour cell growth, NCI panel, 48 h

SMILES | TGI | GI50
COC(=O)C(Cc1cn(C(C)n2cc(CC(NC(C)=O)C(=O)OC)c3ccccc32)c2ccccc12)NC(C)=O (centres undefined) | > 100 µM | –
OCc1cn(Cc2ccccc2)c2ccccc12 | > 63.8 µM | –
CC(=O)O[C@@H](c1nccn1Cc1ccccc1)[C@H]1OC(C)(C)O[C@@H]1[C@H]1COC(C)(C)O1 | > 100 µM | –
O=C1C=C[C@H](O)[C@@]2(CO)O[C@@H]12 | 24.5 µM | 12.1 µM
O=C(c1ccco1)N(C(=O)N1CCCCC1)c1ccccc1 | > 100 µM | –
OCc1ccc2c(c1)CC1(C2)Cc2cc3c(cc2C1O)CCC3 (centres undefined) | 16.5 µM | –

system: RPMI-8226 leukemia; assay: inhibition of tumour cell growth, NCI panel, 48 h

SMILES | TGI | GI50
COC(=O)C(Cc1cn(C(C)n2cc(CC(NC(C)=O)C(=O)OC)c3ccccc32)c2ccccc12)NC(C)=O (centres undefined) | > 100 µM | –
OCc1cn(Cc2ccccc2)c2ccccc12 | 12.1 µM | –
CC(=O)O[C@@H](c1nccn1Cc1ccccc1)[C@H]1OC(C)(C)O[C@@H]1[C@H]1COC(C)(C)O1 | > 100 µM | –
O=C1C=C[C@H](O)[C@@]2(CO)O[C@@H]12 | 12 µM | 3.38 µM
O=C(c1ccco1)N(C(=O)N1CCCCC1)c1ccccc1 | > 100 µM | –
OCc1ccc2c(c1)CC1(C2)Cc2cc3c(cc2C1O)CCC3 (centres undefined) | 15.8 µM | –
